Our source for the IC50 values is patent publication US10696693B2, “Fused imidazole derivatives as TGF-beta inhibitors” (Rigel Pharmaceuticals, Inc., priority 2014, dated 2020).

In one test the test system is GDF8. Kind of test: AlphaScreen SureFire p-SMAD3 (Ser423/425) assay, GDF8-stimulated cells. The note with it: Mus musculus. The format is cell-based. In outline:
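A SureFire AlphaScreen assay measured phosphorylation of endogenous SMAD-3 at Ser423/425 in cell lysates. Cells were treated with three-fold serially diluted compounds in DMSO for about 10 minutes, then stimulated with GDF8. After medium removal, cells were lysed in 1× Lysis Buffer (about 25 μL) with gentle shaking for 5-10 minutes.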
A general note: In Alpha technology, singlet oxygen from a donor bead excites a nearby acceptor bead.

The next test concerns TGF-β. Nature of the test: AlphaScreen SureFire p-SMAD3 (Ser423/425) assay, TGF-β-stimulated cells. The format is cell-based. The note with it: Mus musculus. The gist of the method:
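The p-SMAD-3 (Ser423/425) SureFire assay measured phosphorylation of endogenous SMAD-3 in cell lysates. Cells were plated overnight in collagen-coated plates, exposed to three-fold serially diluted compounds for about 10 minutes, then stimulated with TGFβ. Lysates (5 μL) received acceptor bead mix for 2 hours, then donor beads for 1½ hours before AlphaScreen reading.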

The mark [1] stands for this setting: MPC-11, p-SMAD3 (Ser423/425) AlphaScreen in cell lysate, MPC11, GDF8 stimulation, read-out: GDF8: inhibition of GDF8 signaling, GDF pSMAD (MPC11).
[2] abbreviates: p-SMAD3 (Ser423/425) AlphaScreen in cell lysate, MPC-11, TGF-β stimulation, read-out: TGF-β: inhibition of TGF-β signaling, TGF-β pSMAD (MPC-11).

Where two headings read alike, the source gives them in different places.

For `Cc1cccc(-c2nc3occn3c2-c2ccc3[nH]ncc3c2)c1` [Compound 139, 6-(m-tolyl)-5-(1H-indazol-5-yl)imidazo[2,1-b]oxazole], the IC50 in the test with GDF8 (setting [1]) and with TGF-β (setting [2]) was less than 50 nM each time.
For the compound `Cc1cccc(-c2nc3occn3c2-c2ccc3cn[nH]c3c2)c1` [Compound 140, 6-(m-tolyl)-5-(1H-indazol-6-yl)imidazo[2,1-b]oxazole], the IC50 in the test on GDF8 (setting [1]) and in the test with TGF-β (setting [2]) was less than 50 nM throughout.
As for `Cc1cccc(-c2nc3occn3c2-c2ccc3ncsc3c2)c1` [Compound 141, 5-(benzo[d]thiazo-6-yl)-6-(m-tolyl)imidazo[2,1-b]oxazole], the IC50 with GDF8 (setting [1]) and in the test with TGF-β (setting [2]) was less than 50 nM in each case.
For the compound `Cc1cccc(-c2nc3occn3c2-c2ccc3nccnc3c2)c1` [Compound 142, 5-(quinoxalin-6-yl)-6-(m-tolyl)imidazo[2,1-b]oxazole], the IC50 in the test with GDF8 (setting [1]) and with TGF-β (setting [2]) was less than 50 nM each time.
Consider `Cc1cccc(-c2nc3occn3c2-c2ccc3nccn3c2)c1` [Compound 143, 6-(m-tolyl)-5-(imidazo[1,2-a]pyridin-6-yl)imidazo[2,1-b]oxazole], for which the IC50 in the test on GDF8 (setting [1]) and in the test with TGF-β (setting [2]) was less than 50 nM throughout.
Regarding `Cc1cccc(-c2nc3occn3c2-c2ccc3ncccc3c2)c1` [Compound 144, 5-(quinolin-6-yl)-6-(m-tolyl)imidazo[2,1-b]oxazole], the IC50 in the test with GDF8 (setting [1]) was less than 50 nM; with TGF-β (setting [2]), 50 to 100 nM.
The matching figures for `Fc1ccc(-c2nc3occn3c2-c2ccc3ncccc3c2)cc1F` [Compound 145, 5-(quinolin-6-yl)-6-(3,4-difluorophenyl)imidazo[2,1-b]oxazole]: 50 to 100 nM and 100 to 1000 nM.
With `Fc1ccc(-c2nc3occn3c2-c2ccc3ncccc3c2)cc1` [Compound 146, 5-(quinolin-6-yl)-6-(4-fluorophenyl)imidazo[2,1-b]oxazole], the IC50 with GDF8 (setting [1]) and in the test with TGF-β (setting [2]) was 100 to 1000 nM throughout.
Regarding `Fc1cc(F)c(-c2nc3occn3c2-c2ccc3cn[nH]c3c2)cc1F` [Compound 147, 6-(2,4,5-trifluorophenyl)-5-(1H-indazol-6-yl)imidazo[2,1-b]oxazole], the results for the IC50 in the test with GDF8 (setting [1]) and with TGF-β (setting [2]) were less than 50 nM and 50 to 100 nM, respectively.
Consider `Fc1cc(F)c(-c2nc3occn3c2-c2ccc3nccn3c2)cc1F` [Compound 148, 6-(2,4,5-trifluorophenyl)-5-(imidazo[1,2-a]pyridin-6-yl)imidazo[2,1-b]oxazole], for which the IC50 in the test on GDF8 (setting [1]) is less than 50 nM; with TGF-β (setting [2]), 50 to 100 nM.
The matching figures for `Fc1cc(F)c(-c2nc3occn3c2-c2ccc3nccnc3c2)cc1F` [Compound 149, 5-(quinoxalin-6-yl)-6-(2,4,5-trifluorophenyl)imidazo[2,1-b]oxazole]: less than 50 nM and 50 to 100 nM.
As to `Fc1cc(F)c(-c2nc3occn3c2-c2ccc3ncccc3c2)cc1F` [Compound 150, 5-(quinolin-6-yl)-6-(2,4,5-trifluorophenyl)imidazo[2,1-b]oxazole], the IC50 in the test on GDF8 (setting [1]) is less than 50 nM; in the test with TGF-β (setting [2]), 50 to 100 nM.
On to `Fc1cc(F)c(-c2nc3occn3c2-c2ccc3ncsc3c2)cc1F` [Compound 151, 5-(benzo[d]thiazol-6-yl)-6-(2,4,5-trifluorophenyl)imidazo[2,1-b]oxazole], for which the IC50 in the test with GDF8 (setting [1]) and with TGF-β (setting [2]) was less than 50 nM in each case.
As to `Fc1cc(F)c(-c2nc3occn3c2-c2ccc3[nH]ncc3c2)cc1F` [Compound 152, 6-(2,4,5-trifluorophenyl)-5-(1H-indazol-5-yl)imidazo[2,1-b]oxazole], the IC50 in the test with GDF8 (setting [1]) was less than 50 nM; with TGF-β (setting [2]), 50 to 100 nM.
`Cc1ccc(-c2nc3occn3c2Br)c(F)c1` [Compound 153, 5-bromo-6-(2-fluoro-4-methylphenyl)imidazo[2,1-b]oxazole]: the IC50 in the test on GDF8 (setting [1]) and with TGF-β (setting [2]) was more than 1000 nM in each case.
For the compound `Fc1ccc(-c2nc3occn3c2-c2ccc3[nH]ncc3c2)c(F)c1` [Compound 154, 6-(2,4-difluorophenyl)-5-(1H-indazol-5-yl)imidazo[2,1-b]oxazole], the IC50 with GDF8 (setting [1]) is less than 50 nM; with TGF-β (setting [2]), 100 to 1000 nM.
Consider `Fc1ccc(-c2nc3occn3c2-c2ccc3cn[nH]c3c2)c(F)c1` [Compound 155, 6-(2,4-difluorophenyl)-5-(1H-indazol-6-yl)imidazo[2,1-b]oxazole], for which the IC50 was 50 to 100 nM with GDF8 (setting [1]) and 100 to 1000 nM with TGF-β (setting [2]).
On to `Fc1ccc(-c2nc3occn3c2-c2ccc3ncsc3c2)c(F)c1` [Compound 156, 5-(benzo[d]thiazol-6-yl)-6-(2,4-difluorophenyl)imidazo[2,1-b]oxazole], for which the IC50 with GDF8 (setting [1]) is less than 50 nM; in the test on TGF-β (setting [2]) it was 50 to 100 nM.
`Fc1ccc(-c2nc3occn3c2-c2ccc3nccnc3c2)c(F)c1` [Compound 157, 6-(2,4-difluorophenyl)-5-(quinoxalin-6-yl)imidazo[2,1-b]oxazole]: the IC50 with GDF8 (setting [1]) and in the test with TGF-β (setting [2]) was 100 to 1000 nM throughout.
Take `Fc1ccc(-c2nc3occn3c2-c2ccc3ncccc3c2)c(F)c1` [Compound 158, 5-(quinolin-6-yl)-6-(2,4-difluorophenyl)imidazo[2,1-b]oxazole]: the results for the IC50 with GDF8 (setting [1]) and with TGF-β (setting [2]) were less than 50 nM and 50 to 100 nM, respectively.
As for `Fc1ccc(-c2nc3occn3c2-c2ccc3nccn3c2)c(F)c1` [Compound 159, 6-(2,4-difluorophenyl)-5-(imidazo[1,2-a]pyridin-6-yl)imidazo[2,1-b]oxazole], the results for the IC50 in the test on GDF8 (setting [1]) and in the test with TGF-β (setting [2]) were less than 50 nM and 50 to 100 nM, respectively.
The matching figures for `Fc1ccc(-c2nc3occn3c2-c2ccc3[nH]ncc3c2)c(F)c1F` [Compound 160, 6-(2,3,4-trifluorophenyl)-5-(1H-indazol-5-yl)imidazo[2,1-b]oxazole]: 50 to 100 nM and 100 to 1000 nM.
Regarding `Fc1ccc(-c2nc3occn3c2-c2ccc3ncsc3c2)c(F)c1F` [Compound 161, 5-(benzo[d]thiazol-6-yl)-6-(2,3,4-trifluorophenyl)imidazo[2,1-b]oxazole], the IC50 lay within 50 to 100 nM with GDF8 (setting [1]) and 100 to 1000 nM with TGF-β (setting [2]).
On to `Fc1ccc(-c2nc3occn3c2-c2ccc3ncccc3c2)c(F)c1F` [Compound 162, 5-(quinolin-6-yl)-6-(2,3,4-trifluorophenyl)imidazo[2,1-b]oxazole], for which the IC50 in the test with GDF8 (setting [1]) lay within 50 to 100 nM; with TGF-β (setting [2]), 100 to 1000 nM.
`Fc1ccc(-c2nc3occn3c2-c2ccc3nccn3c2)c(F)c1F` [Compound 163, 5-(imidazo[1,2-a]pyridin-6-yl)-6-(2,3,4-trifluorophenyl)imidazo[2,1-b]oxazole]: the IC50 in the test on GDF8 (setting [1]) is 50 to 100 nM; in the test with TGF-β (setting [2]) it was 100 to 1000 nM.
As to `Fc1ccc(-c2nc3occn3c2-c2ccc3nccnc3c2)c(F)c1F` [Compound 164, 5-(quinoxalin-6-yl)-6-(2,3,4-trifluorophenyl)imidazo[2,1-b]oxazole], the IC50 in the test with GDF8 (setting [1]) and in the test on TGF-β (setting [2]) was 100 to 1000 nM in each case.
As for `Fc1cc(F)c(F)c(-c2nc3n(c2-c2ccc4ncccc4c2)CCCN3)c1` [Compound 165, 6-(2-(2,3,5-trifluorophenyl)-5,6,7,8-tetrahydroimidazo[1,2-a]pyrimidin-3-yl)quinoline], the values for the IC50 in the test on GDF8 (setting [1]) and in the test on TGF-β (setting [2]) were more than 1000 nM and 100 to 1000 nM, respectively.
As to `Fc1cc(F)c(F)c(-c2nc3n(c2-c2ccc4ncnn4c2)CCCN3)c1` [Compound 166, 6-(2-(2,3,5-trifluorophenyl)-5,6,7,8-tetrahydroimidazo[1,2-a]pyrimidin-3-yl)-[1,2,4]triazolo[1,5-a]pyridine], the IC50 with GDF8 (setting [1]) and in the test on TGF-β (setting [2]) was 50 to 100 nM throughout.
As for `COCCOc1cnc2ccc(-c3c(-c4cc(F)cc(F)c4F)nc4n3CCCN4)cc2n1` [Compound 167, 2-(2-methoxyethoxy)-7-(2-(2,3,5-trifluorophenyl)-5,6,7,8-tetrahydroimidazo[1,2-a]pyrimidin-3-yl)quinoxaline], the IC50 with GDF8 (setting [1]) and in the test with TGF-β (setting [2]) was more than 1000 nM each time.
`Cc1cccc(-c2nc3n(c2-c2ccc4[nH]ncc4c2)CCC3)c1` [Compound 168, 5-(2-(m-tolyl)-6,7-dihydro-5H-pyrrolo[1,2-a]imidazol-3-yl)-1H-indazole]: the IC50 is less than 50 nM in the test on GDF8 (setting [1]) and 50 to 100 nM in the test with TGF-β (setting [2]).
On to `Cc1cccc(-c2nc3n(c2-c2ccc4cn[nH]c4c2)CCC3)c1` [Compound 169, 6-(2-(m-tolyl)-6,7-dihydro-5H-pyrrolo[1,2-a]imidazol-3-yl)-1H-indazole], for which the IC50 in the test with GDF8 (setting [1]) is less than 50 nM; in the test on TGF-β (setting [2]) it was 50 to 100 nM.
`Cc1cccc(-c2nc3n(c2-c2ccc4ncsc4c2)CCC3)c1` [Compound 170, 6-(2-(m-tolyl)-6,7-dihydro-5H-pyrrolo[1,2-a]imidazol-3-yl)benzo[d]thiazole]: the IC50 in the test with GDF8 (setting [1]) was less than 50 nM; in the test with TGF-β (setting [2]) it was 50 to 100 nM.
The matching figures for `Cc1cccc(-c2nc3n(c2-c2ccc4[nH]cnc4c2)CCC3)c1` [Compound 171, 5-(2-(m-tolyl)-6,7-dihydro-5H-pyrrolo[1,2-a]imidazol-3-yl)-1H-benzo[d]imidazole]: 50 to 100 nM and 100 to 1000 nM.
For the compound `Cc1cc(-c2nc3n(c2-c2ccc4[nH]ncc4c2)CCC3)ccc1F` [Compound 172, 5-(2-(4-fluoro-3-methylphenyl)-6,7-dihydro-5H-pyrrolo[1,2-a]imidazol-3-yl)-1H-indazole], the IC50 in the test with GDF8 (MPC-11, read-out: GDF8: inhibition of GDF8 signaling, GDF pSMAD (MPC11), p-SMAD3 (Ser423/425) AlphaScreen in cell lysate, GDF8 stimulation) was less than 50 nM; with TGF-β (MPC-11, read-out: TGF-β: inhibition of TGF-β signaling, TGF-β pSMAD (MPC-11), p-SMAD3 (Ser423/425) AlphaScreen in cell lysate, TGF-β stimulation), 50 to 100 nM.
